Read-outs that look alike come from different tables or passages of the source.

The test system of one data set is B16 melanoma cells. In kind it is cell-based. The source says:
Furthermore, the autophagy induction of humanin may be related to its apparent effects of enhancing longevity observed in other systems.

The test system of data set [1] is male germ cells.
The subject of the next data set is testosterone. Particulars: with or without EDS pre-treatment.
In data set [2] the test system is Leydig cells. As to the kind of experiment: Histology of rat testes: Leydig cells. The following applies: EDS for three days.
Data set [3] deals with Leydig cells. Nature of the data set: Testosterone of cultured Leydig cells treated with ketoconazole. In kind it is cell-based, rat. Particulars: KTZ 10 mcg/ml, 4 hours. As to the method:
Leydig cells were isolated based on a previously described procedure (Gao, et al., 1996; Klinefelter, et al., 1987; Salva, et al., 2001). Briefly, the testes were decapsulated, and then dissociated with collagenase, dispase, DNase and shaking for 15 min at 34° C. The seminiferous tubules were removed by filtration through 40 μm nylon mesh (BD Falcon, Franklin Lakes, N.J.). Leydig cells were then harvested after centrifugation and purified using a Percoll gradient (GE Healthcare, Uppsala, Sweden) and centrifugation (60 minutes at 20,000 g at 4° C.). Enriched Leydig cells were harvested at densities between 1.065 (red) and 1.075 (blue) g/cm^3 from the percoll gradient. These Leydig cells were washed by diluting the percoll and excluding residual germ cells and other cells using a BSA density gradient with centrifugation. The purity of the Leydig cells was >90%, as determined by histochemical staining for 3β-hydroxysteroid dehydrogenase. The cell viability, as assessed by trypan blue exclusion, was greater than 90%. […]
Testosterone concentrations in plasma, testes, and culture medium were measured by a previously described radioimmunoassay (Lue, et al., 2010) with a minimal detection limit of 0.1 ng/ml. […]

Data set [4] concerns male germ cells. In kind it is in vivo, mouse. Particulars: middle stages. As to the method:
Onco-infertility is a major concern of cancer survivors. In this study, it was investigated whether HNG will prevent chemotherapy (Temozolomide, TMZ, an alkylating agent used clinically to treat brain tumors) induced male germ cell apoptosis in SCID mice bearing subcutaneous implants of human medulloblastoma. DAOY human pediatric medulloblastoma cells (1.0×10^8 cells/animal) were injected subcutaneously into the right flank of 7-week old male SCID mice. After 3 weeks to allow tumor growth, each group of mice (n=4 to 5/group) received one of the following treatments: 1) vehicle (control); 2) HNG intra-peritoneal (IP) injection (HNG, 5 mg/Kg BW/day, 3 days pretreatment +5 days treatment); 3) TMZ IP injection (TMZ, 50 mg/Kg BW/day×5 days); 4) TMZ and HNG IP injections (TMZ+HNG). Mice were sacrificed 24 hours after the last injection, subcutaneous tumors were dissected and weighed (FIG. 26) and male germ cell apoptosis was assessed by TUNEL staining and quantified (Apoptosis Index, AI, number of apoptotic germ cell/Sertoli cell, FIG. 27). […] HNG ameliorated TMZ-induced germ cell apoptosis without affecting the chemotherapeutic effect on transplanted medulloblastoma tumor in an immunocompromised mouse model.

For data set [5] the following is noted: Table 1; cited from earlier work.

As to `Cn1cnc(=N)c2[nH]cnc21` [3-MA], in the data set on B16 melanoma cells, the “additive effect of humanin in doxorubicin treated B16 cells, with autophagy inhibitor” value is recorded as “diminished”.

Consider `CS(=O)(=O)OCCOS(C)(=O)=O` [EDS, ethane dimethanesulfonate], for which, in the data set on male germ cells [1] (early (I-VI) and late (IX-XIV) stages, EDS pre-treated), the “germ cell apoptosis compared to control” value is listed as “did not significantly increase”. Moreover, the “germ cell apoptosis compared to control” value in the data set with male germ cells [1] (middle (VII-VIII) stages, EDS 80 mg/kg pre-treatment) is given as “significant acute cytotoxic effects”. In addition, in the data set with testosterone, the intratesticular testosterone levels entry is given as “decreased to very low levels” and the serum testosterone levels result is “decreased to very low levels”. The “Leydig cells in the interstitial spaces compared to control” value in the data set with Leydig cells [2] is “depletion of Leydig cells”.

As for `CC(=O)N1CCN(c2ccc(OCC3COC(Cn4ccnc4)(c4ccc(Cl)cc4Cl)O3)cc2)CC1` (centres unmarked) [KTZ, ketoconazole], the “testosterone levels compared to control” value in the data set with Leydig cells [3] is “lowered the testosterone levels significantly”.

Regarding `Cn1nnc2c(C(N)=O)ncn2c1=O` [TMZ, Temozolomide], the “Apoptosis Index (AI, apoptotic germ cell/Sertoli cell)” value in the data set with male germ cells [4] was determined as 0.058±0.006.

For the compound `CCN(CC)CCCC(C)Nc1ccnc2cc(Cl)ccc12` (centres unmarked) [chloroquine], the “additive effect of humanin in doxorubicin treated B16 cells, with autophagy inhibitor” value in the data set on B16 melanoma cells is given as “diminished”.

As to MAPRGASCLLLLTSEIDLPVKRRA [HN-F6A], the “Cytoprotective Action” value in data set [5] is “Similar/more effective”.

As to “MAPRGFSALLLLTSEIDLPVKRRA [HN-C8A, HN mutant, Cys8 to Ala]”, the “Cytoprotective Action” value in data set [5] is “Not effective, prevents”.

Values taken from patent US9937227B2, “Humanin, analogs and cancer treatment methods and uses thereof” (LOS ANGELES BIOMEDICAL RESEARCH INSTITUTE AT HARBOR-UCLA …, priority 2014, dated 2018).
